{"source": "paper PMC10303159", "about": "“Conjugation of Triterpenic Acids of Ursane and Oleanane Types with Mitochondria-Targeting Cation F16 Synergistically Enhanced Their Cytotoxicity against Tumor Cells” (Membranes, 2023)", "key": {"rat liver mitochondria [1]": {"test_system": "rat liver mitochondria", "experiment": "Mitochondrial H2O2 generation (Amplex Red)", "type": "biochemical", "conditions": "5 μM", "procedure": "(§1) Mitochondria were obtained from the liver of male Wistar rats (210–250 g) using the differential centrifugation method. The detailed procedure and composition of the isolation media were described earlier. The suspension of isolated mitochondria contained about 60–70 mg of mitochondrial protein per ml (determined by the Bradford method).\nThe fluorescent probe Amplex Red (λex = 560 nm; λem = 590 nm) and a plate reader Varioskan Lux were used to register mitochondrial H2O2 generation. In this case, 0.15 mg of mitochondrial protein was incubated in the buffer containing 210 mM mannitol, 70 mM sucrose, 10 μM EGTA, 10 µM Amplex Red, 1 µM rotenone, 10 µM EGTA, horseradish peroxidase (HRP 1 a.u./mL), 10 mM Hepes/KOH, and at a pH of 7.4. […] The kinetics of H2O2 generation was recorded for three minutes."}, "[2]": {"test_system": "MCF-7 cells (human breast adenocarcinoma)", "experiment": "MTT cytotoxicity assay, MCF-7", "type": "cell-based", "excerpt": "(§2) All cell lines used in this study (human non-small cell lung cancer—H1299 (Accession Number—CRL-5803), human lung carcinoma—A549 (Accession Number—CCL-185), human breast adenocarcinoma—MCF-7 (Accession Number—HTB-22), human breast ductal carcinoma—BT474 (Accession Number—HTB-20)) were purchased from American Type Culture Collection (ATCC, Manassas, VA, USA). Human primary dermal fibroblasts (HPDF) derived from a patch of skin of healthy donors (n = 3) were obtained from the biobank of the Institute for Regenerative Medicine, Lomonosov Moscow State University, collection ID: MSU_FB (https://human.depo.msu.ru (accessed on 14 September 2021)). Cells were grown in DMEM media supplemented with 10% fetal bovine serum, 100 μg/mL gentamycin, and 2 mM of glutamine at 37 °C in a 5% CO2 atmosphere.\n(§3) To carry out the MTT assay, 3500 cells per well were seeded in 96-well plates. A day after the seeding, triterpenoids or their derivatives dissolved in DMSO were added. DMSO was used as a control. At 48 h after cell seeding, 10 μL of 5 mg/mL Thiazolyl Blue (Paneko, Russia) solution was added to each well and cells were kept for 3 h at 37 °C in a CO2 incubator. After removing the thiazol-containing medium, 150 μL of isopropyl alcohol (supplemented with 40 mM HCl and 0.1% NP-40) was added to dissolve the MTT-formazan salt. The absorbance at 570 and 630 nm (reference) was measured using a BioRad iMark microplate reader (BioRad, Hercules, CA, USA). Four biological replicates were used for the experiment. The results were processed with Excel software (version number: 14.0.6023.1000 (32-bit)). IC50 values were calculated by using AAT Bioquest online calculator (https://www.aatbio.com/tools/ic50-calculator, accessed on 15 May 2023) and are represented as the mean ± SEM."}, "[3]": {"test_system": "H1299 cells (human non-small cell lung cancer)", "experiment": "MTT cytotoxicity assay, H1299", "type": "cell-based", "conditions": "Homo sapiens, NCI-H1299, 48 h of treatment, mean ± SEM", "excerpt": "as §2, §3"}, "rat liver mitochondria [4]": {"test_system": "rat liver mitochondria", "experiment": "Mitochondrial membrane potential (TPP-sensitive electrode)", "type": "biochemical", "conditions": "glutamate + malate or succinate + rotenone, Figure 5", "procedure": "as §1\nThe mitochondrial membrane potential (Δψ) was measured using a penetrating tetraphenylphosphonium bromide (TPP) cation and a TPP-sensitive electrode (Nico-Analyte Ltd., Moscow, Russia) as described previously. The concentration of mitochondrial protein was 1 mg/mL."}, "[5]": {"test_system": "Human primary dermal fibroblasts (HPDF)", "experiment": "MTT cytotoxicity assay, HPDF", "type": "cell-based", "excerpt": "as §2\nas §3, with “A day after the seeding, triterpenoids or their derivatives dissolved in DMSO were added.” left out, “At 48 h after cell seeding, 10 μL of 5 mg/mL Thiazolyl Blue (Paneko, Russia) solution was added to each well and cells were kept for 3 h at 37 °C in a CO2 incubator.” left out"}, "[6]": {"test_system": "BT474 cells (human breast ductal carcinoma)", "experiment": "MTT cytotoxicity assay, BT474", "type": "cell-based", "conditions": "BT-474, 48 h of treatment, mean ± SEM", "excerpt": "as §2, §3"}, "[7]": {"test_system": "A549 cells (human lung carcinoma)", "experiment": "MTT cytotoxicity assay, A549", "type": "cell-based", "conditions": "Homo sapiens, A549, 48 h, MTT assay, 48 h of treatment, mean ± SEM", "excerpt": "as §2\nas §3, with “A day after the seeding, triterpenoids or their derivatives dissolved in DMSO were added.” left out, “At 48 h after cell seeding, 10 μL of 5 mg/mL Thiazolyl Blue (Paneko, Russia) solution was added to each well and cells were kept for 3 h at 37 °C in a CO2 incubator.” left out"}, "rat liver mitochondria [8]": {"test_system": "rat liver mitochondria", "experiment": "Respiration of isolated mitochondria fueled by glutamate and malate", "type": "biochemical", "procedure": "as §1\n(§4) The rate of O2 consumption by mitochondrial samples was estimated using Oxygraph Plus (Hansatech Instruments Ltd., Pentney, King’s Lynn, UK). The reaction medium included 200 mM sucrose, 20 mM KCl, 0.5 mM EGTA, 5 mM KH2PO4, and 10 mM Hepes/KOH, pH 7.4. The following combinations of substrates and reagents were used: 2.5 mM potassium glutamate + 2.5 mM potassium malate and 5 mM potassium succinate + 1 µM rotenone. Under these conditions, it is possible to assess the oxygen-consuming capacity of mitochondria through complexes I and II of the electron transport chain. To determine the rates of the phosphorylating respiration (State 3) and uncoupled respiration (State 3UDNP) of the mitochondria, 200 µM ADP and 50 µM 2,4-dinitrophenol (DNP) were added sequentially. The concentration of mitochondrial protein was 1 mg/mL."}, "rat liver mitochondria [9]": {"test_system": "rat liver mitochondria", "experiment": "Respiration of isolated mitochondria fueled by succinate", "type": "biochemical", "procedure": "as §1, §4"}, "BT474 cells": {"test_system": "BT474 cells", "experiment": "Oxidative stress assay (Muse Oxidative Stress Kit), BT474", "type": "cell-based, human", "conditions": "BT474, 2 μM", "procedure": "Oxidative stress was assessed after cell culture and incubation (as described above). For this, cells were harvested by trypsinization, washed with ice-cold PBS buffer (pH 7.4), and centrifuged (1000 rpm, 5 min). The resulting cells were resuspended in PBS. Cell population analysis for oxidative stress was performed on a Muse cell analyzer (Merck Millipore, Burlington, MA, USA) using the Muse Oxidative Stress Kit (MCH100111) according to the manufacturer’s protocol."}}, "data": [{"smiles": "CC1(C)CCC2(C(=O)OCCCC[n+]3ccc(C=Cc4c[nH]c5ccccc45)cc3)CCC3(C)C(=CCC4C5(C)CCC(O)C(C)(C)C5CCC43C)C2C1", "note": "(stereo not shown) [OA-F16]", "values": [{"measurement": "Effect on production of H2O2 by organelles", "setting": "rat liver mitochondria [1]", "value": "antioxidant effect"}, {"measurement": "IC50", "setting": "[2]; Homo sapiens, MCF7, MTT assay, 48 h of treatment, mean ± SEM", "value": "1520 ± 160", "unit": "nM"}, {"measurement": "Chou–Talalay combination index (CI)", "setting": "[2]; MCF7 cells, based on IC50 values for parent acid, F16 [23] and conjugate, CI < 1 synergism", "value": 0.03}, {"measurement": "IC50", "setting": "[3]", "value": "930 ± 70", "unit": "nM"}, {"measurement": "Effect on membrane potential of organelles", "setting": "rat liver mitochondria [4]", "value": "the most effective"}, {"measurement": "IC50", "setting": "[5]; Homo sapiens, Fibroblast, MTT assay, 48 h of treatment, mean ± SEM", "value": "2050 ± 580", "unit": "nM"}, {"measurement": "Selectivity index (SI)", "setting": "[5]; between tumor cells H1299, A549 and MCF-7 and fibroblasts", "value": "1.3–2.8"}, {"measurement": "IC50", "setting": "[6]", "value": "4340 ± 280", "unit": "nM"}, {"measurement": "IC50", "setting": "[7]", "value": "740 ± 90", "unit": "nM"}, {"measurement": "ADP/O", "setting": "rat liver mitochondria [8]; 10 μM", "value": "2.80 ± 0.13", "unit": "rel. un."}, {"measurement": "RC (state 3/state 4)", "setting": "rat liver mitochondria [8]; 10 μM", "value": "2.24 ± 0.11", "unit": "rel. un."}, {"measurement": "State 2 respiration", "setting": "rat liver mitochondria [8]; 10 μM", "value": "6.47 ± 0.27", "unit": "nmol O2/min/mg Protein"}, {"measurement": "State 3UDNP respiration", "setting": "rat liver mitochondria [8]; 10 μM", "value": "31.34 ± 0.49", "unit": "nmol O2/min/mg Protein"}, {"measurement": "State 3 respiration", "setting": "rat liver mitochondria [8]; 10 μM", "value": "23.82 ± 0.53", "unit": "nmol O2/min/mg Protein"}, {"measurement": "State 4 respiration", "setting": "rat liver mitochondria [8]; 10 μM", "value": "10.65 ± 0.24", "unit": "nmol O2/min/mg Protein"}, {"measurement": "ADP/O", "setting": "rat liver mitochondria [8]; 20 μM", "value": "0.64 ± 0.05", "unit": "rel. un."}, {"measurement": "RC (state 3/state 4)", "setting": "rat liver mitochondria [8]; 20 μM", "value": "1.03 ± 0.04", "unit": "rel. un."}, {"measurement": "State 2 respiration", "setting": "rat liver mitochondria [8]; 20 μM", "value": "15.38 ± 0.30", "unit": "nmol O2/min/mg Protein"}, {"measurement": "State 3UDNP respiration", "setting": "rat liver mitochondria [8]; 20 μM", "value": "23.24 ± 0.61 *#^γ nmol O2/min/mg Protein"}, {"measurement": "State 3 respiration", "setting": "rat liver mitochondria [8]; 20 μM", "value": "17.02 ± 0.97", "unit": "nmol O2/min/mg Protein"}, {"measurement": "State 4 respiration", "setting": "rat liver mitochondria [8]; 20 μM", "value": "16.55 ± 0.54", "unit": "nmol O2/min/mg Protein"}, {"measurement": "ADP/O", "setting": "rat liver mitochondria [9]; 10 μM", "value": "1.41 ± 0.09", "unit": "rel. un."}, {"measurement": "RC (state 3/state 4)", "setting": "rat liver mitochondria [9]; 10 μM", "value": "2.83 ± 0.20", "unit": "rel. un."}, {"measurement": "State 2 respiration", "setting": "rat liver mitochondria [9]; 10 μM", "value": "14.39 ± 0.65", "unit": "nmol O2/min/mg Protein"}, {"measurement": "State 3UDNP respiration", "setting": "rat liver mitochondria [9]; 10 μM", "value": "69.57 ± 1.73", "unit": "nmol O2/min/mg Protein"}, {"measurement": "State 3 respiration", "setting": "rat liver mitochondria [9]; 10 μM", "value": "48.46 ± 0.82", "unit": "nmol O2/min/mg Protein"}, {"measurement": "State 4 respiration", "setting": "rat liver mitochondria [9]; 10 μM", "value": "17.22 ± 0.93", "unit": "nmol O2/min/mg Protein"}, {"measurement": "ADP/O", "setting": "rat liver mitochondria [9]; 20 μM", "value": "1.15 ± 0.05", "unit": "rel. un."}, {"measurement": "RC (state 3/state 4)", "setting": "rat liver mitochondria [9]; 20 μM", "value": "1.25 ± 0.10", "unit": "rel. un."}, {"measurement": "State 2 respiration", "setting": "rat liver mitochondria [9]; 20 μM", "value": "14.05 ± 0.18", "unit": "nmol O2/min/mg Protein"}, {"measurement": "State 3UDNP respiration", "setting": "rat liver mitochondria [9]; 20 μM", "value": "56.46 ± 4.21", "unit": "nmol O2/min/mg Protein"}, {"measurement": "State 3 respiration", "setting": "rat liver mitochondria [9]; 20 μM", "value": "41.57 ± 1.36", "unit": "nmol O2/min/mg Protein"}, {"measurement": "State 4 respiration", "setting": "rat liver mitochondria [9]; 20 μM", "value": "33.23 ± 0.75", "unit": "nmol O2/min/mg Protein"}, {"measurement": "Effect on level of ROS-positive cells", "setting": "BT474 cells", "value": "significantly increase the level of ROS-positive cells"}]}]}
